Test results taken from BigSolDB 2.1.

Conditions: in water

CC(C)(C)[C@H](O)[C@H](Cc1ccc(Cl)cc1)n1cncn1 (racemic)
Conditions	solubility (mole fraction)
278.15 K	3.96e-05
280.65 K	5.22e-05
283.15 K	6.56e-05
285.65 K	7.76e-05
288.15 K	8.75e-05
290.65 K	0.000111
293.15 K	0.000146
295.65 K	0.000181
298.15 K	0.000231
300.65 K	0.000295
303.15 K	0.000346
305.65 K	0.000408
308.15 K	0.000458
310.65 K	0.00054
313.15 K	0.000626
